Data from patent US9096615B2, “Bridged bicyclic amino thiazine dioxide compounds as inhibitors of beta-secretase and methods of use thereof” (AMGEN INC., priority 2013, dated 2015).
Where two headings read alike, the source gives them in different places.

Legend:
Abeta 40 = test: In vivo inhibition of beta-secretase: percent Abeta 40 reduction in CSF and brain; set-up: species or system rat; conditions: 10 mpk, after 4 hrs
Excerpt: In Vivo Inhibition of Beta-Secretase
Several animal models, including mouse, rat, dog, and monkey, may be used to screen for inhibition of beta-secretase activity in vivo following administration of a test compound sample. Animals used in this invention can be wild type, transgenic, or gene knockout animals. For example, the Tg2576 mouse model, prepared and conducted as described in Hsiao et al., 1996, Science 274, 99-102, and other non-transgenic or gene knockout animals are useful to analyze in vivo inhibition of Amyloid beta peptide (Abeta) production in the presence of inhibitory test compounds. Generally, 2 to 18 month old Tg2576 mice, gene knockout mice or non-transgenic animals are administered test compounds formulated in vehicles, such as cyclodextran, phosphate buffers, hydroxypropyl methylcellulose or other suitable vehicles. One to twenty-four hours following the administration of compound, animals are sacrificed, and brains as well as cerebrospinal fluid (CSF) and plasma are removed for analysis of A-beta levels and drug or test compound concentrations (Dovey et al., 2001, Journal of Neurochemistry, 76, 173-181) Beginning at time 0, animals are administered by oral gavage, or other means of delivery such as intravenous injection, an inhibitory test compound of up to 100 mg/kg in a standard, conventional formulation, such as 2% hydroxypropyl methylcellulose, 1% Tween80. A separate group of animals receive 2% hydroxypropyl methylcellulose, 1% Tween80 alone, containing no test compound, and serve as a vehicle-control group. At the end of the test period, animals are sacrificed and brain tissues, plasma or cerebrospinal fluid are collected. Brains are either homogenized in 10 volumes (w/v) of 0.2% diethylamine (DEA) in 50 mM NaCl (Best et al., 2005, Journal of Pharmacology and Experimental Therapeutics, 313, 902-908), or in 10 volumes of 0.5% TritonX-100 in Tris-buffered saline (pH at about 7.6). Homogenates are centrifuged at 355,000 g, 4° C. for 30 minutes. CSF or brain supernatants are then analyzed for the presence of A-beta peptide by specific sandwich ELISA assays based on ECL (Electrochemiluminescence) technology. For example, rat Abeta40 is measured using biotinylated-4G8 (Signet) as a capture antibody and Fab40 (an in-house antibody specific to the C-terminal of Abeta40) as a detection antibody. For example, 4 hours after administration of 30 mg/kg oral dose of the test compound in 2% hydroxypropyl methylcellulose, 1% Tween80 (pH2.2) to 200 g male Sprague Dawley rats, amyloid beta peptide levels are measured for reduction by X % and Y % in cerebrospinal fluid and brain, respectively, when compared to the levels measured in the vehicle-treated or control […].
Actual vehicles used: Oral: 2% HPMC, 1% Tween80, pH 2.2
• IV: 5% EtOH, 45% Propylene glycol in 5% Dextrose
The compounds of the invention may be shown to reduce the formation and/or deposition of amyloid beta peptide in the cerebrospinal fluid (CSF) as well as in the brain of a mouse or rat at either 3 mpk, 10 mpk or 30 mpk (mpk=mg compound per kg weight of the animal) dosing concentrations after 4 hrs.

[1] = system: Aβ40 in conditioned medium of cells stably expressing Amyloid Precursor Protein (APP); test: In vitro BACE cell-based assay (HEK cell assay, Aβ40 sandwich ELISA); conditions: Homo sapiens, HEK293
In short: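 IC50 was derived from percent-of-control Aβ40 against concentration, with Aβ40 quantified by time-resolved fluorescence ELISA (pAb40/6E10-biotin, 4 °C incubations). Supernatants were sampled after 24 h of compound exposure (10 points, starting 100 or 10 μM, 0.1% DMSO) of cells stably expressing APP.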

Cathepsin D (Cat D) = target: T1, Cathepsin D (Cat D) (Homo sapiens, UniProt P07339); test: In vitro enzymatic Cathepsin D (Cat D) FRET assay; format: biochemical; conditions: read-out: CatD IC50
T1 construct: made in house; host or cells: CHO cells
In short: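 Fluorescence (500 nm excitation, 580 nm emission) was measured after Tris quench of a 1 h cleavage of 20 nM quenched peptide substrate. Before that, 9 nM CHO-expressed human Cat D sat with compound for 1 h at pH 3.5 (0.05 M citrate, 5 mM CHAPS, 10% DMSO final).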

BACE1 = BACE1 (Homo sapiens, UniProt P56817); test: In vitro enzymatic BACE FRET assay; format: biochemical
In short: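 Fluorescence (excitation 488 nm, […]) from cleavage of quenched peptide substrate (50 nM), reaction run 1 h after 1 h enzyme–inhibitor pre-incubation, then neutralised with Tris. Conditions: 0.2 nM enzyme, pH 4.2 acetate 0.05 M, 10% DMSO final, 100 uM genapol.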

[2] = Abeta 40, rat CSF, read-out: % reduction of rat CSF levels at 10 pmk
[3] = Abeta 40, rat brain, read-out: % reduction of rat brain levels at 10 mpk
[4] = Aβ40, 24 h incubation, read-out: HEK cell assay IC50
[5] = read-out: BACE1 FRET assay IC50
[6] = average IC50, read-out: BACE1 cell assay IC50
[7] = average IC50, read-out: BACE1 Enzyme assay IC50

T1 sequence (P07339 65-412, species assumed): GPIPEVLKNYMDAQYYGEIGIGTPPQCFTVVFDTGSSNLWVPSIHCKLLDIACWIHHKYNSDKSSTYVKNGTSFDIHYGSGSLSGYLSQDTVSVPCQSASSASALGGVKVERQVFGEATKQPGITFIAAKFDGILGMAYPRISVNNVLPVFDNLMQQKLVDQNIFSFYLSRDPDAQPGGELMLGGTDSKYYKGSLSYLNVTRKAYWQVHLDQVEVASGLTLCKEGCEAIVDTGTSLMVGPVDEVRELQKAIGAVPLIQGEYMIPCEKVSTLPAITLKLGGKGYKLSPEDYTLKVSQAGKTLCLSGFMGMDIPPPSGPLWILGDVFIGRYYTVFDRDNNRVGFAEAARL
Sequence of BACE1 (P56817 46-501, species assumed): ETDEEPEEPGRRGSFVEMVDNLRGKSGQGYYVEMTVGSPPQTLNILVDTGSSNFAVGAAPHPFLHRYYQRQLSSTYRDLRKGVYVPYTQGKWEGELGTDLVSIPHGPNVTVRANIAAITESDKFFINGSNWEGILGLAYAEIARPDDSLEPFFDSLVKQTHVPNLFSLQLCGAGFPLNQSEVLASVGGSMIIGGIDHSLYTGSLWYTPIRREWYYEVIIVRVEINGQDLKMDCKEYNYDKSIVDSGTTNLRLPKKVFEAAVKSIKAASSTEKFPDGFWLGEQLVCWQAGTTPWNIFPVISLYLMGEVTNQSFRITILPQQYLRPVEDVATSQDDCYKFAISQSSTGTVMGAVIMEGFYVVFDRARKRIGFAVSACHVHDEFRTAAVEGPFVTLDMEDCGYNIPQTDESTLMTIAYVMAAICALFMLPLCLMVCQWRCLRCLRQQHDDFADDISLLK

SMILES | inhibition in vivo at 10 mg/kg (Abeta 40; [2]) [%] | inhibition in vivo at 10 mg/kg (Abeta 40; [3]) [%] | IC50 [1, 4] [µM] | IC50 (Cathepsin D (Cat D)) [µM] | IC50 (BACE1; [5]) [µM] | IC50 [1, 6] [µM] | IC50 (Cathepsin D (Cat D); average IC50, first procedure) [µM] | IC50 (BACE1; [7]) [µM]
Cc1cc(Cl)cnc1C(=O)Nc1ccc(F)c([C@@]2(C)N=C(N)[C@@]3(C)CC[C@@H]2S3(=O)=O)c1 [Example 22, N-(3-((1S,2R,5R)-4-Amino-2,5-dimethyl-8,8-dioxido-8-thia-3-azabicyclo[3.2.1]oct-3-en-2-yl)-4-fluorophenyl)-5-chloro-3-methylpicolinamide] | 76 | 66 | 0.002 | 1740 | 0.002 |  |  | 
Cc1cc(C(F)(F)F)cnc1C(=O)Nc1ccc(F)c([C@@]2(C)N=C(N)[C@@]3(C)CC[C@@H]2S3(=O)=O)c1 [Example 24, N-(3-((1S,2R,5R)-4-Amino-2,5-dimethyl-8,8-dioxido-8-thia-3-azabicyclo[3.2.1]oct-3-en-2-yl)-4-fluorophenyl)-3-methyl-5-(trifluoromethyl)picolinamide] | 72 | 62 | 0.001 | 591 | 0.005 |  |  | 
C[C@]1(c2cc(N)ccc2F)N=C(N)[C@@]2(C)CC[C@@H]1S2(=O)=O [Example 35, (1R,4R,5S)-4-(5-amino-2-fluorophenyl)-1,4-dimethyl-8-thia-3-azabicyclo[3.2.1]oct-2-en-2-amine 8,8-dioxide] | 52 | 46 | 5.81 | 287 | 10.1 |  |  | 
CC#Cc1ccc(C(=O)Nc2ccc(F)c([C@@]3(C)N=C(N)[C@@]4(C)CC[C@@H]3S4(=O)=O)c2)nc1 [Example 69, N-(3-((1S,2R,5R)-4-amino-2,5-dimethyl-8,8-dioxido-8-thia-3-azabicyclo[3.2.1]oct-3-en-2-yl)-4-fluorophenyl)-5-(1-propyn-1-yl)-2-pyridinecarboxamide] | 42 | 9 |  |  |  | 0.003 | > 400 | 0.002
COc1cnc(C(=O)Nc2ccc(F)c([C@@]3(C)N=C(N)[C@@]4(C)CC[C@@H]3S4(=O)=O)c2)c(C)n1 [Example 79, N-(3-((1S,2R,5R)-4-amino-2,5-dimethyl-8,8-dioxido-8-thia-3-azabicyclo[3.2.1]oct-3-en-2-yl)-4-fluorophenyl)-5-methoxy-3-methyl-2-pyrazinecarboxamide] | 71 | 62 |  |  |  | 0.003 | 1830 | 0.009
Cc1cc(C(F)(F)F)cnc1C(=O)Nc1ccc(F)c([C@@]2(C)N=C(N)[C@@]3(CF)CC[C@@H]2S3(=O)=O)c1 [Example 92, N-(3-((1S,2R,5R)-4-amino-5-(fluoromethyl)-2-methyl-8,8-dioxido-8-thia-3-azabicyclo[3.2.1]oct-3-en-2-yl)-4-fluorophenyl)-3-methyl-5-(trifluoromethyl)-2-pyridinecarboxamide] | 73 | 67 |  |  |  | 0.005 | 789 | 0.004
C[C@]1(c2cc(Nc3ncc(F)c4cc(OCC5CC5)cnc34)ccc2F)N=C(N)[C@@]2(C)CC[C@@H]1S2(=O)=O [Example 137, N-(3-((1S,2R,5R)-4-amino-2,5-dimethyl-8,8-dioxido-8-thia-3-azabicyclo[3.2.1]oct-3-en-2-yl)-4-fluorophenyl)-3-(cyclopropylmethoxy)-5-fluoro-1,7-naphthyridin-8-amine] |  |  |  |  |  | 0.0654 | > 400 | 0.003
CC#CCOc1ccc(C(=O)Nc2ccc(F)c([C@@]3(C)N=C(N)[C@@]4(C)CC[C@@H]3S4(=O)=O)c2)c(F)c1 [Example 138, N-(3-((1S,2R,5R)-4-amino-2,5-dimethyl-8,8-dioxido-8-thia-3-azabicyclo[3.2.1]oct-3-en-2-yl)-4-fluorophenyl)-4-(2-butyn-1-yloxy)-2-fluorobenzamide] |  |  |  |  |  | 0.122 | > 400 | 0.061
COC[C@]12CC[C@H]([C@@](C)(c3cc(Nc4ncnc5cc(Cl)cnc45)ccc3F)N=C1N)S2(=O)=O [Example 141, N-(3-((1R,2R,5S)-4-amino-5-(methoxymethyl)-2-methyl-8,8-dioxido-8-thia-3-azabicyclo[3.2.1]oct-3-en-2-yl)-4-fluorophenyl)-7-chloropyrido[3,2-d]pyrimidin-4-amine] |  |  |  |  |  | 0.327 | 1180 | 0.408
COC[C@]12CC[C@H]([C@@](C)(c3cc(NC(=O)c4ncc(Cl)cc4C)ccc3F)N=C1N)S2(=O)=O [Example 142, N-(3-((1R,2R,5S)-4-amino-5-(methoxymethyl)-2-methyl-8,8-dioxido-8-thia-3-azabicyclo[3.2.1]oct-3-en-2-yl)-4-fluorophenyl)-5-chloro-3-methyl-2-pyridinecarboxamide] |  |  |  |  |  | 0.482 | > 400 | 0.093
CC(C)COc1cnc2c(Nc3ccc(F)c([C@@]4(C)N=C(N)[C@@]5(C)CC[C@@H]4S5(=O)=O)c3)nccc2n1 [Example 143, N-(3-((1S,2R,5R)-4-amino-2,5-dimethyl-8,8-dioxido-8-thia-3-azabicyclo[3.2.1]oct-3-en-2-yl)-4-fluorophenyl)-2-(2-methylpropoxy)pyrido[3,4-b]pyrazin-5-amine] |  |  |  |  |  | 0.164 | 150 | 0.009
CCCOc1cnc2c(Nc3ccc(F)c([C@@]4(C)N=C(N)[C@@]5(C)CC[C@@H]4S5(=O)=O)c3)nccc2n1 [Example 144, N-(3-((1S,2R,5R)-4-amino-2,5-dimethyl-8,8-dioxido-8-thia-3-azabicyclo[3.2.1]oct-3-en-2-yl)-4-fluorophenyl)-2-propoxypyrido[3,4-b]pyrazin-5-amine] |  |  |  |  |  | 0.071 | > 400 | 0.004
Cn1ccc(COc2cnc3c(Nc4ccc(F)c([C@@]5(C)N=C(N)[C@@]6(C)CC[C@@H]5S6(=O)=O)c4)nccc3n2)n1 [Example 147, N-(3-((1S,2R,5R)-4-amino-2,5-dimethyl-8,8-dioxido-8-thia-3-azabicyclo[3.2.1]oct-3-en-2-yl)-4-fluorophenyl)-2-((1-methyl-1H-pyrazol-3-yl)methoxy)pyrido[3,4-b]pyrazin-5-amine] |  |  |  |  |  | 0.001 | > 400 | 0.002
C[C@]1(c2cc(Nc3nccc4[nH]c(=O)cnc34)ccc2F)N=C(N)[C@@]2(CF)CC[C@@H]1S2(=O)=O [Example 148, 5-((3-((1S,2R,5R)-4-amino-5-(fluoromethyl)-2-methyl-8,8-dioxido-8-thia-3-azabicyclo[3.2.1]oct-3-en-2-yl)-4-fluorophenyl)amino)pyrido[3,4-b]pyrazin-2(1H)-one] |  |  |  |  |  | 0.019 | 217 | 0.016
